Laboratory results as given in patent US20140163026A1, “8-ETHYL-6-(ARYL)PYRIDO[2,3-D]PYRIMIDIN-7(8H)-ONES FOR THE TREATMENT OF NERVOUS SYSTEM DISORDERS AND CANCER” (Afraxis Holdings, Inc., priority 2011, published 2014).

Experiments:
Assay type in all cases: biochemical
[1] = target: PAK3 (Homo sapiens, UniProt O75914); test: In vitro PAK inhibition assay (SelectScreen, Ser/Thr 20 peptide)
Summary of the method: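 PAK3 phosphorylation of Ser/Thr 20 peptide in 50 mM HEPES pH 7.5, 0.01% BRIJ-35, 10 mM MgCl2, 1 mM EGTA, 1% DMSO final; 60 min at room temperature, then 60 min development reaction with fluorescence read-out. 10-point 3-fold titrations; percent phosphorylation from 0% and 100% phosphopeptide controls.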

[2] = target: PAK2 (PAK65) (Homo sapiens, UniProt Q13177); test: as above
Sequence of PAK2 (PAK65) (Q13177 whole entry): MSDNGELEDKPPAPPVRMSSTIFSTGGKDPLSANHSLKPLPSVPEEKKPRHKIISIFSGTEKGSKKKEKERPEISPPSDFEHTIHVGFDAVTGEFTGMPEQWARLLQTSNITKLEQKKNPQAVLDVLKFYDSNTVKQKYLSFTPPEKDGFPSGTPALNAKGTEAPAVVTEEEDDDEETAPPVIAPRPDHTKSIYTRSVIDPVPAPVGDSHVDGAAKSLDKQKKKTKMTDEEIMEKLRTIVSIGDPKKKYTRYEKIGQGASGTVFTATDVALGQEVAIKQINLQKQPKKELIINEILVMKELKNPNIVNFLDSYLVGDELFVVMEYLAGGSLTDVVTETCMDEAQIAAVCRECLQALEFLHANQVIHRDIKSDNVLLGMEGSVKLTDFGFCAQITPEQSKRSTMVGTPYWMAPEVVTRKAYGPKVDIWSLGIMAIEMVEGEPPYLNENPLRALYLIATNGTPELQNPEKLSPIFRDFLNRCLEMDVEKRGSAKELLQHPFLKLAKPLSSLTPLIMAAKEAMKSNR
Summary of the method: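 FRET-based peptide cleavage assay: 0.29-6 ng PAK2 and 2 μM Ser/Thr 20 peptide in 50 mM HEPES pH 7.5, 10 mM MgCl2, 1 mM EGTA, 0.01% BRIJ-35, 1% DMSO final. Kinase reaction 60 min at room temperature, then 60 min development; 10-point 3-fold titrations, percent phosphorylation from fluorescence.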

[3] = target: PAK1 (Homo sapiens, UniProt Q13153); test: In vitro PAK inhibition assay (SelectScreen, Ser/Thr 19 peptide)
Sequence of PAK1 (Q13153 whole entry): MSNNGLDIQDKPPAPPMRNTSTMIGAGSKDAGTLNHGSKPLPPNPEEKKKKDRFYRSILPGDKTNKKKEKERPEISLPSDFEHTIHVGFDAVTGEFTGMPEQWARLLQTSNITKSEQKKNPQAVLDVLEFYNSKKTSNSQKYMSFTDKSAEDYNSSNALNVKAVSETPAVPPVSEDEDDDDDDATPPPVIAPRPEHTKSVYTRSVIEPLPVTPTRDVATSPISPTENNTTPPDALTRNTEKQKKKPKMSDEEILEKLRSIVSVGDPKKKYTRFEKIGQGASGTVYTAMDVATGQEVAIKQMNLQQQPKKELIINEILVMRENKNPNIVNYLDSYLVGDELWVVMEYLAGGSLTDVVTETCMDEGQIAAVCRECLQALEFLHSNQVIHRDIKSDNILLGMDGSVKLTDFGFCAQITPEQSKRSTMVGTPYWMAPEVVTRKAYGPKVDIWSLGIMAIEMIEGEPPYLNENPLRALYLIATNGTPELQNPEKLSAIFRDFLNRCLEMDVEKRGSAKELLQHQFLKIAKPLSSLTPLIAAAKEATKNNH
Summary of the method: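 Kinase reaction ran in 50 mM HEPES pH 7.5, 0.01% BRIJ-35, 10 mM MgCl2, 1 mM EGTA with Ser/Thr 19 peptide for 60 min at room temperature, followed by 60 min protease development. Fluorescence gave percent phosphorylation. Compounds were tested as 10-point, 3-fold titrations in 1% DMSO final.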

[4] = target: PAK4 (Homo sapiens, UniProt O96013); test: In vitro PAK inhibition assay (SelectScreen, Ser/Thr 20 peptide)
Sequence of PAK4 (O96013 whole entry): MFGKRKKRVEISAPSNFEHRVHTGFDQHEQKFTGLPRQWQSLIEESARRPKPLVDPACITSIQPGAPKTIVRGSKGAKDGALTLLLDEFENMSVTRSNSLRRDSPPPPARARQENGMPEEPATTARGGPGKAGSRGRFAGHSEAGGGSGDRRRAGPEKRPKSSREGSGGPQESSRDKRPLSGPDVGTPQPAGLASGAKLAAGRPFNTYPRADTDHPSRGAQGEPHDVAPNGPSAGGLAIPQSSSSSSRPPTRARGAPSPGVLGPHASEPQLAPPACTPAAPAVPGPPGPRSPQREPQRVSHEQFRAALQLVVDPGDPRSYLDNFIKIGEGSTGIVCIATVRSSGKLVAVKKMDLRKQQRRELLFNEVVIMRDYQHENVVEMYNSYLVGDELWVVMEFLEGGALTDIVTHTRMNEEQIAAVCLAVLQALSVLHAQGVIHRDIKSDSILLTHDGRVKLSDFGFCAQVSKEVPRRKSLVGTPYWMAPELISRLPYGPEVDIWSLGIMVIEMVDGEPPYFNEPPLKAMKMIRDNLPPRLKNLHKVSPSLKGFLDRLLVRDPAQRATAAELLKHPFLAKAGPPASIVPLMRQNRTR
Summary of the method: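 FRET-based Ser/Thr 20 peptide phosphorylation: 0.1-0.75 ng PAK4, 2 μM peptide in 50 mM HEPES pH 7.5, 10 mM MgCl2, 1 mM EGTA, 0.01% BRIJ-35, 1% DMSO; 60 min at room temperature, then 60 min protease development. 10-point 3-fold titrations; IC50 from sigmoidal fit.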

Sequence of PAK3 (O75914 whole entry): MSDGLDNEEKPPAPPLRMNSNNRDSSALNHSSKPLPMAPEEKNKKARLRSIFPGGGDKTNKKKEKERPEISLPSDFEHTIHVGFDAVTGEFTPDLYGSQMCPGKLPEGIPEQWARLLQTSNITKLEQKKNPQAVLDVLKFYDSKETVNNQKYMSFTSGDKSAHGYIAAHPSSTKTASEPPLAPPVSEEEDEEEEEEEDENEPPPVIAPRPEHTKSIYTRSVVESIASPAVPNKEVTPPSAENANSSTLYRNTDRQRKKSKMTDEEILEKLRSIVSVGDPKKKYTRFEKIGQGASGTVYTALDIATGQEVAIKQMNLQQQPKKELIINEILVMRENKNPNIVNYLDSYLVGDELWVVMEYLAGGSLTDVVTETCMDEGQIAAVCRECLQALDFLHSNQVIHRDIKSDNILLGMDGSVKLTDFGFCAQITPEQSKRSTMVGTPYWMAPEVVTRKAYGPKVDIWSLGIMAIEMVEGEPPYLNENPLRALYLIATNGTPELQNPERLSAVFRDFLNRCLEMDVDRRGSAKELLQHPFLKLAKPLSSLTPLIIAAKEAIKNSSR

IC50 [1]	IC50 [2]	IC50 [3]	IC50 [4]	SMILES
50 to 500 nM	50 to 500 nM	< 50 nM	≥ 5000 nM	CCN1CCC(c2ccc(Nc3ncc4cc(-c5ccc(-c6ccc(F)nc6C)cc5Cl)c(=O)n(CC)c4n3)cc2)CC1
50 to 500 nM	< 50 nM	< 50 nM	500 to 5000 nM	CCn1c(=O)c(-c2ccc(-c3ccc(C)nc3)cc2Cl)cc2cnc(Nc3ccc(C4CCN5CCCC5C4)cc3)nc21 (centres unmarked)
< 50 nM	< 50 nM	< 50 nM	≥ 5000 nM	CCn1c(=O)c(-c2ccc(-c3noc(C)n3)cc2Cl)cc2cnc(Nc3ccc(C4CCN5CCCC5C4)cc3)nc21 (centres unmarked)
> 5000 nM	> 5000 nM	> 5000 nM	≥ 5000 nM	CCn1c(=O)c(-c2sc(C)nc2C)cc2cnc(Nc3ccc(N4CCN(C)CC4)cc3)nc21
< 50 nM	< 50 nM	< 50 nM	≥ 5000 nM	Cc1nccnc1-c1ccc(-c2cc3cnc(Nc4ccc(C5CCN(C)CC5)cc4)nc3n(C)c2=O)c(Cl)c1
50 to 500 nM	50 to 500 nM	< 50 nM	≥ 5000 nM	CCn1c(=O)c(-c2ccc(-c3cc(N(C)C)ncn3)cc2Cl)cc2cnc(Nc3ccc(C4CCN(C)CC4)cc3)nc21
< 50 nM	< 50 nM	< 50 nM	50 to 500 nM	CCn1c(=O)c(-c2ccc(-c3cccnc3F)cc2Cl)cc2cnc(Nc3ccc(CCN(C)C)cc3)nc21
> 5000 nM	500 to 5000 nM	50 to 500 nM	≥ 5000 nM	CCn1c(=O)c(-c2ccc(-c3cccs3)cc2)cc2cnc(Nc3ccc(N4CCN(C)CC4)cc3)nc21
50 to 500 nM	50 to 500 nM	< 50 nM	≥ 5000 nM	CCn1c(=O)c(-c2ccc(-c3cc(C)ncn3)cc2Cl)cc2cnc(Nc3ccc(C4CCN(C)CC4)cc3)nc21
50 to 500 nM	> 5000 nM	500 to 5000 nM	500 to 5000 nM	CN1CCC(c2ccc(Nc3ncc4cc(-c5cc(-c6nccc(N(C)C)n6)ccc5Cl)c(=O)n(C)c4n3)cc2)CC1
50 to 500 nM	50 to 500 nM	50 to 500 nM	≥ 5000 nM	CCn1c(=O)c(-c2ccc(-c3noc(C)n3)cc2)cc2cnc(Nc3ccc(C4CCN(C)CC4)cc3)nc21
< 50 nM	< 50 nM	< 50 nM	500 to 5000 nM	CCn1c(=O)c(-c2ccc(-c3noc(C)n3)cc2Cl)cc2cnc(Nc3ccc(C4CCN(C(C)C)CC4)cc3)nc21
< 50 nM	< 50 nM	< 50 nM	500 to 5000 nM	CCN(CC)CCc1ccc(Nc2ncc3cc(-c4ccc(-c5cnc(C)s5)cc4Cl)c(=O)n(CC)c3n2)cc1
< 50 nM	< 50 nM	< 50 nM	500 to 5000 nM	CCN1CCN(c2ccc(Nc3ncc4cc(-c5ccc(-c6cncnc6)cc5Cl)c(=O)n(CC)c4n3)cc2F)CC1
< 50 nM	< 50 nM	< 50 nM	500 to 5000 nM	CCn1c(=O)c(-c2ccc(-c3cccnc3F)cc2Cl)cc2cnc(Nc3ccc(C4CCN(C)CC4)c(F)c3)nc21
< 50 nM	< 50 nM	< 50 nM	50 to 500 nM	CCn1c(=O)c(-c2cc(C)c(-c3cccnc3)cc2Cl)cc2cnc(Nc3ccc(C4CCN(C)CC4)cc3)nc21
< 50 nM	< 50 nM	< 50 nM	≥ 5000 nM	CCn1c(=O)c(-c2ccc(-c3ccsc3)cc2Cl)cc2cnc(Nc3ccc(N4CCN(C)CC4)cc3)nc21
> 5000 nM	> 5000 nM	> 5000 nM	≥ 5000 nM	CCn1c(=O)c(-c2ccc(-c3ccon3)s2)cc2cnc(Nc3ccc(N4CCN(C)CC4)cc3)nc21
50 to 500 nM	< 50 nM	< 50 nM	500 to 5000 nM	CCn1c(=O)c(-c2ccc(-c3ccc(C)nc3)cc2Cl)cc2cnc(Nc3ccc(N4CCN(C)CC4)cc3)nc21
50 to 500 nM	50 to 500 nM	< 50 nM	≥ 5000 nM	CCN1CCC(c2ccc(Nc3ncc4cc(-c5ccc(-c6cccnc6C)cc5Cl)c(=O)n(C)c4n3)cc2)CC1
< 50 nM	< 50 nM	< 50 nM	≥ 5000 nM	CCn1c(=O)c(-c2ccc(-c3nccnc3C)cc2C)cc2cnc(Nc3ccc(C4CCN(C)CC4)cc3)nc21
500 to 5000 nM	500 to 5000 nM	50 to 500 nM	≥ 5000 nM	CN1CCC(c2ccc(Nc3ncc4cc(-c5cc(-c6cccnc6)ccc5Cl)c(=O)n(C)c4n3)cc2)CC1

IC50 [1]	IC50 [2]	IC50 [3]	IC50 [4]	SMILES
> 5000 nM	50 to 500 nM	500 to 5000 nM	≥ 5000 nM	CCn1c(=O)c(-c2ccc(-c3ccc(C(=O)NC)nc3)cc2Cl)cc2cnc(Nc3ccc(C4CCN(C)CC4)cc3)nc21
50 to 500 nM	50 to 500 nM	< 50 nM	≥ 5000 nM	CCn1c(=O)c(-c2ccc(-c3cccnc3C)cc2Cl)cc2cnc(Nc3ccc(C4CCN5CCCC5C4)cc3)nc21 (centres unmarked)
50 to 500 nM	50 to 500 nM	50 to 500 nM	500 to 5000 nM	CCN1CCC(c2ccc(Nc3ncc4cc(-c5ccc(-c6ccc(C)nc6F)cc5Cl)c(=O)n(CC)c4n3)cc2)CC1
< 50 nM	< 50 nM	< 50 nM	500 to 5000 nM	CCn1c(=O)c(-c2ccc(-c3cccnc3)cc2Cl)cc2cnc(Nc3ccc(C4CCNCC4)c(F)c3)nc21
50 to 500 nM	< 50 nM	< 50 nM	≥ 5000 nM	CCn1c(=O)c(-c2ccc(-c3scnc3C)cc2Cl)cc2cnc(Nc3ccc(N4CCN(C(C)C)CC4)cc3)nc21
< 50 nM	< 50 nM	< 50 nM	500 to 5000 nM	CCn1c(=O)c(-c2ccc(-c3ccccc3F)cc2Cl)cc2cnc(Nc3ccc(C4CCN(C)CC4)cc3)nc21
50 to 500 nM	50 to 500 nM	< 50 nM	≥ 5000 nM	CCOC(=O)c1nc(-c2ccc(-c3cc4cnc(Nc5ccc(N6CCN(C)CC6)cc5)nc4n(CC)c3=O)c(Cl)c2)no1
< 50 nM	< 50 nM	< 50 nM	500 to 5000 nM	CCn1c(=O)c(-c2ccc(-c3cnc(C)s3)cc2Cl)cc2cnc(Nc3ccc(CCN4CCCC4)cc3)nc21
< 50 nM	< 50 nM	< 50 nM	500 to 5000 nM	CCn1c(=O)c(-c2ccc(-c3nccs3)cc2Cl)cc2cnc(Nc3ccc(N4CCN(C)CC4)cc3)nc21
50 to 500 nM	50 to 500 nM	50 to 500 nM	≥ 5000 nM	CCn1c(=O)c(-c2ccc(-c3ccc(OC)nc3)cc2)cc2cnc(Nc3ccc(N4CCN(C)CC4)cc3)nc21
50 to 500 nM	< 50 nM	< 50 nM	500 to 5000 nM	CCn1c(=O)c(-c2ccc(-c3ccc(C)nc3)cc2Cl)cc2cnc(Nc3ccc(CCN(C)C)cc3)nc21
50 to 500 nM	< 50 nM	< 50 nM	≥ 5000 nM	CCc1cc(-c2ccc(-c3cc4cnc(Nc5ccc(C6CCN(C)CC6)cc5)nc4n(CC)c3=O)c(Cl)c2)ncn1
< 50 nM	< 50 nM	< 50 nM	500 to 5000 nM	CCn1c(=O)c(-c2ccc(-c3cccnc3)cc2Cl)cc2cnc(Nc3ccc(N4CCN(C)CC4)c(F)c3)nc21
500 to 5000 nM	500 to 5000 nM	500 to 5000 nM	≥ 5000 nM	CCn1c(=O)c(-c2ccc(C3CC3)cc2C2CC2)cc2cnc(Nc3ccc(N4CCN(C)CC4)cc3)nc21
50 to 500 nM	50 to 500 nM	50 to 500 nM	≥ 5000 nM	CCn1c(=O)c(-c2ccc(-c3ccc(F)nc3C)cc2Cl)cc2cnc(Nc3ccc(C4CCN(C)CC4)c(F)c3)nc21
50 to 500 nM	50 to 500 nM	50 to 500 nM	≥ 5000 nM	CCn1c(=O)c(-c2ccc(-c3ccnc(C(=O)NC)c3)cc2Cl)cc2cnc(Nc3ccc(C4CCNCC4)cc3)nc21
< 50 nM	< 50 nM	< 50 nM	50 to 500 nM	CCN(CC)CCc1ccc(Nc2ncc3cc(-c4ccc(-c5cccnc5F)cc4Cl)c(=O)n(CC)c3n2)cc1
> 5000 nM	> 5000 nM	500 to 5000 nM	≥ 5000 nM	CN1CCC(c2ccc(Nc3ncc4cc(-c5cc(-c6ccncc6)ccc5Cl)c(=O)n(C)c4n3)cc2)CC1
< 50 nM	< 50 nM	< 50 nM	500 to 5000 nM	CCn1c(=O)c(-c2ccc(-c3noc(C)n3)cc2Cl)cc2cnc(Nc3ccc(C4=CCN(C)CC4)cc3)nc21
500 to 5000 nM	500 to 5000 nM	500 to 5000 nM	≥ 5000 nM	CCOC(=O)c1cncnc1-c1ccc(-c2cc3cnc(Nc4ccc(C5CCN(C)CC5)cc4)nc3n(CC)c2=O)c(Cl)c1
50 to 500 nM	< 50 nM	< 50 nM	≥ 5000 nM	CCn1c(=O)c(-c2ccc(-c3ccnc(C(F)(F)F)n3)cc2Cl)cc2cnc(Nc3ccc(C4CCN(C)CC4)cc3)nc21
50 to 500 nM	< 50 nM	< 50 nM	≥ 5000 nM	CCN1CCN(c2ccc(Nc3ncc4cc(-c5ccc(-c6scnc6C)cc5Cl)c(=O)n(CC)c4n3)cc2)CC1
